In patent US20240218022A1, “ANTI-VISTA MACROCYCLIC PEPTIDES AND COMPOSITIONS” (BRISTOL-MYERS SQUIBB COMPANY, priority 2022, published 2024) one finds IC50 data, which are given here for 13 compounds.

The target in this assay is T1, mouse VISTA (mVISTA) (Mus musculus, UniProt Q9D659).
T1 construct: expressed in transfected cells; host or cells: Human embryonic kidney 293T cells
T1 sequence (Q9D659 33-308): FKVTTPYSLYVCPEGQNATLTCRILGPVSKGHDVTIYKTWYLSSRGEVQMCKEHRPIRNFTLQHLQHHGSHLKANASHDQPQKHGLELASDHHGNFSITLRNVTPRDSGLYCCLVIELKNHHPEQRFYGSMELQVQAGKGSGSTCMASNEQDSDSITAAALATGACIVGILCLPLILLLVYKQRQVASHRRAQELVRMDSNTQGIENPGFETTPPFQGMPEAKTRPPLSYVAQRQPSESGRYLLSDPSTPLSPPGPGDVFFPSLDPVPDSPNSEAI
Nature of the assay: Cell-Based Binding High-Content Assay For mVISTA (HC CBA mVISTA). The gist of the method:
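Read-out: Alexa 647–streptavidin signal imaged on fixed, Hoechst-stained mVISTA-293T cells, with IC50 taken from a four-parameter logistic curve. Compounds competed with 2 nM biotinylated peptide for 30 min at room temperature, tested under both no-wash and wash (1 h compound, media exchange, 1 h) formats.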

Where [1] appears, read: the 20th table, scaffold drawing 23, read-out: HC CBA mVISTA IC50.
The mark [2] stands for this setting: cell-based binding high-content assay, mVISTA, read-out: HC CBA miPr ISTA IC50.

Like-named read-outs stand apart in the source and are kept apart here. Starred links: 1 amine or outer side, 2 acyl side, 3 side chain; linkers in the order of their positions; H or OH if unused. Positions of bridges follow the written chain, without caps; N, C: chain ends. Non-standard residues stand in square brackets, D forms with d. Residues, ends and D or L forms follow the SMILES beside them. Phe(3-Me) = Cc1cccc(C[C@H](N)C(=O)O)c1; γGlu = O=C(O)[C@H](CCC(=O)[*:2])N[*:1]; 2Nal = N[C@@H](Cc1ccc2ccccc2c1)C(=O)O; βAsp = O=C(O)[C@H](CC(=O)[*:2])N[*:1]; Ahp(2) = CCCCC[C@H](N)C(=O)O; NMeNle = CCCC[C@H](NC)C(=O)O; NHexGly = CCCCCCNCC(=O)O; Nle = CCCC[C@H](N)C(=O)O; Aun = NCCCCCCCCCCC(=O)O; AEEA = NCCOCCOCC(=O)O

The term IC50 denotes the concentration that gives 50% inhibition.

`CCCCCCN1CC(=O)N[C@@H](Cc2ccc(O)cc2)C(=O)N[C@@H](CCCC)C(=O)N[C@@H](CC(N)=O)C(=O)N[C@@H](CCCNC(=N)N)C(=O)N[C@@H](CC(C)C)C(=O)N[C@@H](CCCCC)C(=O)N2CCC[C@H]2C(=O)N[C@@H](C(C)C)C(=O)N[C@@H](CC(=O)O)C(=O)N[C@H](C(=O)NCC(=O)O)CSCC(=O)N[C@@H](Cc2ccc(OCC)cc2)C(=O)N[C@@H](Cc2c[nH]c3ccccc23)C(=O)N[C@@H](CC(=O)O)C1=O` [compound 1476] ({CH2CO}-Y(Et)WD[NHexGly]Y[Nle]NRL[Ahp(2)]PVDCG-OH; thioether N-14): the IC50 under setting [1] came out at 36.5 nM.
On the same count and under the same terms, for `CCCCCCN1CC(=O)N[C@@H](Cc2ccc(O)cc2)C(=O)N[C@@H](C(C)C)C(=O)NCC(=O)N[C@@H](CCCNC(=N)N)C(=O)N[C@@H](CC(C)C)C(=O)N[C@@H](CCCCC)C(=O)N2CCC[C@H]2C(=O)N[C@@H](C(C)C)C(=O)N[C@@H](CC(=O)O)C(=O)N[C@H](C(=O)NCC(N)=O)CSCC(=O)N[C@@H](Cc2ccc(OC)cc2)C(=O)N[C@@H](Cc2ccc(O)cc2)C(=O)N[C@@H](CC(=O)O)C1=O` [compound 1477] ({CH2CO}-Y(Me)YD[NHexGly]YVGRL[Ahp(2)]PVDCG-NH2; thioether N-14) the value was 49.2 nM.
On the same count and under the same terms, then `CCCCCCN1CC(=O)N[C@@H](Cc2ccc(O)cc2)C(=O)N[C@@H](C(C)C)C(=O)NCC(=O)N[C@@H](CCCNC(=N)N)C(=O)N[C@@H](CC(C)C)C(=O)N[C@@H](CCCCC)C(=O)N2CCC[C@H]2C(=O)N[C@@H](C(C)C)C(=O)N[C@@H](CC(=O)O)C(=O)N[C@H](C(=O)NCC(=O)O)CSCC(=O)N[C@@H](Cc2ccc(OC)cc2)C(=O)N[C@@H](Cc2ccc(O)cc2)C(=O)N[C@@H](CC(=O)O)C1=O` [compound 1478] ({CH2CO}-Y(Me)YD[NHexGly]YVGRL[Ahp(2)]PVDCG-OH; thioether N-14), with 12 nM.
Consider `CCCCCCN1CC(=O)N[C@@H](Cc2ccc(O)cc2)C(=O)N[C@@H](CC(C)C)C(=O)N[C@@H](CC(N)=O)C(=O)N[C@@H](CCCNC(=N)N)C(=O)N[C@@H](CC(C)C)C(=O)N[C@@H](CCCCC)C(=O)N2CCC[C@H]2C(=O)N[C@@H](C(C)C)C(=O)N[C@@H](CO)C(=O)N[C@H](C(=O)NCC(=O)NCCOCCOCC(=O)N[C@@H](CC(=O)O)C(=O)NCCOCCOCC(=O)NCCCCCCCCCCC(=O)O)CSCC(=O)N[C@@H](Cc2ccccc2)C(=O)N[C@@H](Cc2ccc(O)cc2)C(=O)N[C@@H](CC(=O)O)C1=O` [compound 2001] ({CH2CO}-FYD[NHexGly]YLNRL[Ahp(2)]PVSCG[AEEA]D[AEEA][Aun]-OH; thioether N-14), for which the IC50 under setting [2] came to 19.8 nM.
As to `CCCCCCN1CC(=O)N[C@@H](Cc2ccc(O)cc2)C(=O)N[C@@H](CC(C)C)C(=O)N[C@@H](CC(N)=O)C(=O)N[C@@H](CCCNC(=N)N)C(=O)N[C@@H](CC(C)C)C(=O)N[C@@H](CCCCC)C(=O)N2CCC[C@H]2C(=O)N[C@@H](C(C)C)C(=O)N[C@@H](CO)C(=O)N[C@H](C(=O)N[C@@H](CCC(=O)NCCOCCOCC(=O)N[C@@H](CC(=O)O)C(=O)NCCOCCOCC(=O)NCCCCCCCCCCC(=O)O)C(=O)O)CSCC(=O)N[C@@H](Cc2ccccc2)C(=O)N[C@@H](Cc2ccc(O)cc2)C(=O)N[C@@H](CC(=O)O)C1=O` [compound 2002] ({CH2CO}-FYD[NHexGly]YLNRL[Ahp(2)]PVSC[γGlu][AEEA]D[AEEA][Aun]-OH; thioether N-14), under setting [2], the IC50 was determined as 19.6 nM.
For the compound `CCCCCCN1CC(=O)N[C@@H](Cc2ccc(O)cc2)C(=O)N[C@@H](CC(C)C)C(=O)N[C@@H](CC(N)=O)C(=O)N[C@@H](CCCNC(=N)N)C(=O)N[C@@H](CC(C)C)C(=O)N[C@@H](CCCCC)C(=O)N2CCC[C@H]2C(=O)N[C@@H](C(C)C)C(=O)N[C@@H](CO)C(=O)N[C@H](C(=O)N[C@@H](CC(=O)NCCOCCOCC(=O)N[C@@H](CC(=O)O)C(=O)NCCOCCOCC(=O)NCCCCCCCCCCC(=O)O)C(=O)O)CSCC(=O)N[C@@H](Cc2ccccc2)C(=O)N[C@@H](Cc2ccc(O)cc2)C(=O)N[C@@H](CC(=O)O)C1=O` [compound 2003] ({CH2CO}-FYD[NHexGly]YLNRL[Ahp(2)]PVSC[βAsp][AEEA]D[AEEA][Aun]-OH; thioether N-14), the IC50 under setting [2] is 37.8 nM.
Still for that read-out and setting: then `CCCCCCN1CC(=O)N[C@@H](Cc2ccc(O)cc2)C(=O)N[C@@H](CC(C)C)C(=O)N[C@@H](CC(N)=O)C(=O)N[C@@H](CCCNC(=N)N)C(=O)N[C@@H](CC(C)C)C(=O)N[C@@H](CCCCC)C(=O)N2CCC[C@H]2C(=O)N[C@@H](C(C)C)C(=O)N[C@@H](CO)C(=O)N[C@H](C(=O)N[C@@H](CC(=O)O)C(=O)NCCOCCOCC(=O)N[C@@H](CC(=O)O)C(=O)NCCOCCOCC(=O)NCCCCCCCCCCC(=O)O)CSCC(=O)N[C@@H](Cc2ccccc2)C(=O)N[C@@H](Cc2ccc(O)cc2)C(=O)N[C@@H](CC(=O)O)C1=O` [compound 2004] ({CH2CO}-FYD[NHexGly]YLNRL[Ahp(2)]PVSCD[AEEA]D[AEEA][Aun]-OH; thioether N-14), with 49.3 nM; and `CCCCCCN1CC(=O)N[C@@H](Cc2ccc(O)cc2)C(=O)N[C@@H](CCCC)C(=O)N[C@@H](CC(=O)O)C(=O)N[C@@H](CCCNC(=N)N)C(=O)N[C@@H](CC(C)C)C(=O)N[C@@H](CCCCC)C(=O)N2CCC[C@H]2C(=O)N[C@@H](C(C)C)C(=O)N[C@@H](CC(N)=O)C(=O)N[C@H](C(=O)NCC(=O)NCCOCCOCC(=O)N[C@@H](CC(=O)O)C(=O)NCCOCCOCC(=O)NCCCCCCCCCCC(=O)O)CSCC(=O)N[C@@H](Cc2ccccc2)C(=O)N[C@@H](Cc2ccc(O)cc2)C(=O)N[C@@H](CC(=O)O)C1=O` [compound 2005] ({CH2CO}-FYD[NHexGly]Y[Nle]DRL[Ahp(2)]PVNCG[AEEA]D[AEEA][Aun]-OH; thioether N-14), with 10.5 nM.
The same measure, in the same setting: for `CCCCCCN1CC(=O)N[C@@H](Cc2ccc(O)cc2)C(=O)N[C@@H](CCCC)C(=O)N[C@@H](CC(N)=O)C(=O)N[C@@H](CCCNC(=N)N)C(=O)N[C@@H](CC(C)C)C(=O)N[C@@H](CCCCC)C(=O)N2CCC[C@H]2C(=O)N[C@@H](C(C)C)C(=O)N[C@@H](CO)C(=O)N[C@H](C(=O)NCC(=O)NCCOCCOCC(=O)N[C@@H](CC(=O)O)C(=O)NCCOCCOCC(=O)NCCCCCCCCCCC(=O)O)CSCC(=O)N[C@@H](Cc2ccc3ccccc3c2)C(=O)N[C@@H](Cc2ccc(O)cc2)C(=O)N[C@@H](CC(=O)O)C1=O` [compound 2007] ({CH2CO}-[2Nal]YD[NHexGly]Y[Nle]NRL[Ahp(2)]PVSCG[AEEA]D[AEEA][Aun]-OH; thioether N-14) the value was 19.6 nM; for `CCCCCCN1CC(=O)N[C@@H](Cc2ccc(O)cc2)C(=O)N[C@@H](CCCC)C(=O)N[C@@H](CC(N)=O)C(=O)N[C@@H](CCCNC(=N)N)C(=O)N[C@@H](CC(C)C)C(=O)N[C@@H](CCCCC)C(=O)N2CCC[C@H]2C(=O)N[C@@H](C(C)C)C(=O)N[C@@H](CC(=O)O)C(=O)N[C@H](C(=O)NCC(=O)NCCOCCOCC(=O)N[C@@H](CC(=O)O)C(=O)NCCOCCOCC(=O)NCCCCCCCCCCC(=O)O)CSCC(=O)N[C@@H](Cc2cccc(C)c2)C(=O)N[C@@H](Cc2c[nH]c3ccccc23)C(=O)N[C@@H](CC(=O)O)C1=O` [compound 2008] ({CH2CO}-[Phe(3-Me)]WD[NHexGly]Y[Nle]NRL[Ahp(2)]PVDCG[AEEA]D[AEEA][Aun]-OH; thioether N-14), 16.1 nM; for `CCCCCCN1CC(=O)N[C@@H](Cc2ccc(O)cc2)C(=O)N[C@@H](CC(C)C)C(=O)N[C@@H](CC(N)=O)C(=O)N[C@@H](CCCNC(=N)N)C(=O)N[C@@H](CC(C)C)C(=O)N[C@@H](CCCCC)C(=O)N2CCC[C@H]2C(=O)N[C@@H](C(C)C)C(=O)N[C@@H](C(C)C)C(=O)N[C@H](C(=O)NCC(=O)NCCOCCOCC(=O)N[C@@H](CC(=O)O)C(=O)NCCOCCOCC(=O)NCCCCCCCCCCC(=O)O)CSCC(=O)N[C@@H](Cc2ccccc2)C(=O)N[C@@H](Cc2cccc(C)c2)C(=O)N[C@@H](CC(=O)O)C1=O` [compound 2009] ({CH2CO}-F[Phe(3-Me)]D[NHexGly]YLNRL[Ahp(2)]PVVCG[AEEA]D[AEEA][Aun]-OH; thioether N-14), 38.9 nM.
Still for that read-out and setting: then `CCCCCCN1CC(=O)N[C@@H](Cc2ccc(O)cc2)C(=O)N[C@@H](CCCC)C(=O)N[C@@H](CC(N)=O)C(=O)N[C@@H](CCCNC(=N)N)C(=O)N(C)[C@@H](CCCC)C(=O)N[C@@H](CCCCC)C(=O)N2CCC[C@H]2C(=O)N[C@@H](C(C)C)C(=O)N[C@@H](CC(=O)O)C(=O)N[C@H](C(=O)NCC(=O)NCCOCCOCC(=O)N[C@@H](CC(=O)O)C(=O)NCCOCCOCC(=O)NCCCCCCCCCCC(=O)O)CSCC(=O)N[C@@H](Cc2ccccc2)C(=O)N[C@@H](Cc2c[nH]c3ccccc23)C(=O)N[C@@H](CC(=O)O)C1=O` [compound 2010] ({CH2CO}-FWD[NHexGly]Y[Nle]NR[NMeNle][Ahp(2)]PVDCG[AEEA]D[AEEA][Aun]-OH; thioether N-14), with 15.9 nM; and `CCCCCCN1CC(=O)N[C@@H](Cc2ccc(O)cc2)C(=O)N[C@@H](CC(C)C)C(=O)N[C@@H](CC(N)=O)C(=O)N[C@@H](CCCNC(=N)N)C(=O)N[C@@H](CC(C)C)C(=O)N[C@@H](CCCCC)C(=O)N2CCC[C@H]2C(=O)N[C@@H](C(C)C)C(=O)N[C@@H](C(C)C)C(=O)N[C@H](C(=O)NCC(=O)NCCOCCOCC(=O)N[C@@H](CC(=O)O)C(=O)NCCOCCOCC(=O)NCCCCCCCCCCC(=O)O)CSCC(=O)N[C@@H](Cc2ccccc2)C(=O)N[C@@H](Cc2ccc(O)cc2)C(=O)N[C@@H](CC(=O)O)C1=O` [compound 2012] ({CH2CO}-FYD[NHexGly]YLNRL[Ahp(2)]PVVCG[AEEA]D[AEEA][Aun]-OH; thioether N-14), with 51.3 nM.
